Experimental data: patent US20100311671A1, “TRANSDERMAL DELIVERY OF PKC MODULATORY PEPTIDES THROUGH MI[…]” (Kai Pharmaceuticals, priority 2009, published 2010)

Key:
[1] = Transdermal delivery of conjugate to microporated rat skin, conjugate level in plasma by sandwich ELISA; format: in vivo, Male CD Hairless rats; conditions: rats; for Intact conjugate present in the blood stream as a function of time: after application to microporated skin, blood draws over 2-3 hour period; for Transdermal delivery of the peptide conjugate: applied to microporated skin relative to intact skin, occluded
Protocol: The γV5 peptide RLVLAS (SEQ ID NO: 43) with an […] (Ac) end cap was attached by a GG linker to a TAT carrier peptide (SEQ ID NO: 46) and then the C-terminus was amidated (NH2) to form a conjugate identified as SEQ ID NO: 49. Transdermal delivery of this conjugate was performed as described in Example 1 except that a 1 cm^2 solid polymer microneedle array was used to microporate the skin and an aqueous reservoir patch was used to contact a 10% aqueous formulation of the conjugate with the microporated skin. Results are shown in FIG. 3, where the amount of conjugate in the blood, in ng/mL, is shown as a function of time.

[2] = microporated vs intact rat skin; 30 μm planar skin sections (FIG. 1A)
Excerpt: Male CD Hairless rats were weighed (range: 300-500 grams) and anesthetized by inhaled isoflurane. The rats remained under anesthesia for the duration of the experiment and were sacrificed after the last blood draw. Rats were cannulated at a femoral or jugular vein for blood draws. A derma roller with 1.0 or 1.5 mm microneedles (Moohan Dr. Roller) was rolled across a 1 cm^2 area of skin on the dorsal trunk or waist by passing the roller over the skin 5 times with moderate pressure. Fifty μL of the cPKC inhibitor peptide [sequence] (SEQ ID NO:13) attached to a TAT carrier peptide to form the conjugate peptide identified as SEQ ID NO: 14 at 1% to 10% (10 to 100 mg/mL) was applied to the microporated skin and occluded with a 1 cm^2 piece of saran wrap. […] As a control, rats with intact skin (i.e., rats not subjected to the microneedle array) were also treated with the same peptide conjugate.
To analyze levels of the εPKC inhibitor peptide [sequence] (SEQ ID NO:13) in plasma, both ELISA on planar skin sections and a sandwich ELISA that uses antibodies that recognize different portions of the conjugate (the εPKC inhibitor peptide and the TAT carrier peptide) were employed.

Row | Molecule | Intact conjugate present in the blood stream as a function of time [1] | Transdermal delivery of the peptide conjugate [1] | Penetration of the peptide conjugate through the stratum corneum and into the underlying skin [2]
1 | CC[C@H](C)[C@H](NC(=O)[C@@H]1CCCN1C(=O)[C@H](C)NC(=O)[C@H](CC(=O)O)NC(=O)[C@H](Cc1c[nH]cn1)NC(C)=O)C(=O)NCC(=O)N[C@@H](Cc1ccc(O)cc1)C(=O)N[C@@H](CC(=O)O)C(=O)NCCCCCC(=O)N[C@@H](Cc1ccc(O)cc1)C(=O)NCC(=O)N[C@@H](CCCNC(=N)N)C(=O)N[C@@H](CCCCN)C(=O)N[C@@H](CCCCN)C(=O)N[C@@H](CCCNC(=N)N)C(=O)N[C@@H](CCCNC(=N)N)C(=O)N[C@@H](CCC(N)=O)C(=O)N[C@@H](CCCNC(=N)N)C(=O)N[C@@H](CCCNC(=N)N)C(=O)N[C@@H](CCCNC(=N)N)C(N)=O [SEQ ID NO: 19, AC-HDAPIGYD-AHX-YGRKKRRQRRR-NH2] | in an increasing amount with time | enhanced | 
2 | Ac-EAVSLKPTGGYGRKKRRQRRR-NH2 [SEQ ID NO: 14, Ac-EAVSLKPT GG YGRKKRRQRRR-NH2] | in an increasing amount with time | significantly enhanced | increased penetration
